Results reported in ChEMBL document CHEMBL1156482, “Molecular mechanism of action of monocyclam versus bicyclam non-peptide antagonists in the CXCR4 chemokine receptor” (J Biol Chem, 2007).
Activity calls are given as the source filed them. No cut-off for these calls is given here.

How the values were obtained:
[1] = tested on: Human immunodeficiency virus 1; assay: Antiviral activity against HIV1 NDK infected in U87.CD4 cells expressing human CXCR4 D262N mutant; format: functional, organism-based; settings: Human immunodeficiency virus 1, NDK
[2] = tested on: Human immunodeficiency virus 1; assay: Antiviral activity against HIV1 NDK infected in U87.CD4 cells expressing human CXCR4 D171ND262N mutant; format: functional, organism-based; settings: Human immunodeficiency virus 1, NDK
[3] = tested on: Human immunodeficiency virus 1; assay: Antiviral activity against HIV1 NL43 infected in U87.CD4 cells expressing human CXCR4 D171N mutant; format: functional, organism-based; settings: Human immunodeficiency virus 1, NL43, U87.CD4
[4] = tested on: Human immunodeficiency virus 1; assay: Antiviral activity against HIV1 clinical isolate 10 infected in U87.CD4 cells expressing human CXCR4 D262N mutant; format: functional, organism-based; settings: Human immunodeficiency virus 1, U87.CD4
[5] = tested on: Human immunodeficiency virus 1; assay: Antiviral activity against HIV1 clinical isolate 10 infected in U87.CD4 cells expressing human wild type CXCR4; format: functional, organism-based; settings: Human immunodeficiency virus 1, U87.CD4
[6] = tested on: Human immunodeficiency virus 1; assay: Antiviral activity against HIV1 NL43 infected in U87.CD4 cells expressing human CXCR4 E288A mutant; format: functional, organism-based
[7] = tested on: Human immunodeficiency virus 1; assay: Antiviral activity against HIV1 clinical isolate 10 infected in U87.CD4 cells expressing human CXCR4 D171N mutant; format: functional, organism-based; settings: Human immunodeficiency virus 1, U87.CD4
[8] = tested on: Human immunodeficiency virus 1; assay: Antiviral activity against HIV1 NDK infected in U87.CD4 cells expressing human wild type CXCR4; format: functional, organism-based; settings: Human immunodeficiency virus 1, NDK
[9] = tested on: Human immunodeficiency virus 1; assay: Antiviral activity against HIV1 NL43 infected in U87.CD4 cells expressing human CXCR4 D171N/D262N mutant; format: functional, organism-based
[10] = tested on: Human immunodeficiency virus 1; assay: Antiviral activity against HIV1 NDK infected in U87.CD4 cells expressing human CXCR4 E288A mutant; format: functional, organism-based; settings: Human immunodeficiency virus 1, NDK
[11] = tested on: C-X-C chemokine receptor type 4 (Homo sapiens), P61073 [H113A]; assay: Displacement of [125I]12G5 antibody from transmembrane domain 3 of human CXCR4 H113A mutant expressed in COS7 cells; format: cell-based; settings: COS-7
[12] = tested on: Human immunodeficiency virus 1; assay: Antiviral activity against HIV1 NL43 infected in U87.CD4 cells expressing human wild type CXCR4; format: functional, organism-based; settings: Human immunodeficiency virus 1, NL43, U87.CD4
[13] = tested on: Human immunodeficiency virus 1; assay: Antiviral activity against HIV1 NL43 infected in U87.CD4 cells expressing human CXCR4 D262N mutant; format: functional, organism-based; settings: Human immunodeficiency virus 1, NL43, U87.CD4
[14] = tested on: C-X-C chemokine receptor type 4 (Homo sapiens), P61073 [I259A]; settings: COS-7
[15] = tested on: Human immunodeficiency virus 1; assay: Antiviral activity against HIV1 NL43 infected in U87.CD4 cells expressing human CXCR4 H281A mutant; format: functional, organism-based; settings: Human immunodeficiency virus 1, NL43, U87.CD4
[16] = tested on: Human immunodeficiency virus 1; assay: Antiviral activity against HIV1 clinical isolate 10 infected in U87.CD4 cells expressing human CXCR4 H281A mutant; format: functional, organism-based; settings: Human immunodeficiency virus 1, U87.CD4
[17] = tested on: C-X-C chemokine receptor type 4 (Homo sapiens), P61073 [H281A]; assay: Antagonist activity at human CXCR4 H281A mutant expressed in U87.CD4 cells assessed as inhibition of CXCL12-induced calcium mobilization; format: functional, cell-based
[18] = tested on: C-X-C chemokine receptor type 4 (Homo sapiens), P61073 [D171N]; assay: Displacement of [125I]12G5 antibody from transmembrane domain 4 of human CXCR4 D171N mutant expressed in COS7 cells; format: cell-based; settings: COS-7
[19] = tested on: Human immunodeficiency virus 1; assay: Antiviral activity against HIV1 NDK infected in U87.CD4 cells expressing human CXCR4 H281A mutant; format: functional, organism-based; settings: Human immunodeficiency virus 1, NDK
[20] = tested on: Human immunodeficiency virus 1; assay: Antiviral activity against HIV1 clinical isolate 10 infected U87.CD4 cells expressing human CXCR4 E288A mutant; format: functional, organism-based; settings: Human immunodeficiency virus 1, U87.CD4
[21] = tested on: Human immunodeficiency virus 1; assay: Antiviral activity against HIV1 clinical isolate 10 infected in U87.CD4 cells expressing human CXCR4 D171ND262N mutant; format: functional, organism-based; settings: Human immunodeficiency virus 1, U87.CD4
[22] = tested on: Human immunodeficiency virus 1; assay: Antiviral activity against HIV1 NDK infected in U87.CD4 cells expressing human CXCR4 D171N mutant; format: functional, organism-based; settings: Human immunodeficiency virus 1, NDK

C-X-C chemokine receptor type 4 (Homo sapiens), P61073 [H113A], sequence (P61073 whole entry H113A, the tested form may be a part): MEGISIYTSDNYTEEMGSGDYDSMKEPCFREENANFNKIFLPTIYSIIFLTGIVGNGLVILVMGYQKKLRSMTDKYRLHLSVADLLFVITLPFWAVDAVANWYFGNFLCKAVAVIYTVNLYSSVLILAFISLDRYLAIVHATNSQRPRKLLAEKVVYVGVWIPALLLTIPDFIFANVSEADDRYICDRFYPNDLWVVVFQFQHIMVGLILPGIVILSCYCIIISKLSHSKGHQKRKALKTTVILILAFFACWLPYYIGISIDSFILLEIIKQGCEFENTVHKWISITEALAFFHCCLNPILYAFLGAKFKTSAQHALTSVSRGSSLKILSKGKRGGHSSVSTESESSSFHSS
C-X-C chemokine receptor type 4 (Homo sapiens), P61073 [H281A], sequence (P61073 whole entry H281A, the tested form may be a part): as the sequence (P61073 whole entry H113A, the tested form may be a part) above, with A113H, H281A counted along it
C-X-C chemokine receptor type 4 (Homo sapiens), P61073 [D171N], sequence (P61073 whole entry D171N, the tested form may be a part): as the sequence (P61073 whole entry H113A, the tested form may be a part) above, with A113H, D171N counted along it
C-X-C chemokine receptor type 4 (Homo sapiens), P61073 [I259A], sequence (P61073 whole entry I259A): as the sequence (P61073 whole entry H113A, the tested form may be a part) above, with A113H, I259A counted along it

Compound c1cc(CN2CCCNCCNCCCNCC2)ccc1CN1CCCNCCNCCCNCC1 [PLERIXAFOR] has an IC50 [1] of over 3000 nM, an IC50 [2] of over 3000 nM and an IC50 [3] of 46 nM. The IC50 [4] was 2540 nM, the IC50 [5] was 3 nM and the Activity [6] was “inactive”. The IC50 [7] was 19 nM, the IC50 [8] was 7.6 nM and the Activity [9] was “inactive”. It also gave an IC50 [10] of over 6000 nM, a logKi [11] of -5.71 and an IC50 [12] of 14 nM. The IC50 [13] was over 600 nM, the logKi [14] was -5.81 and the IC50 [15] was under 1.9 nM. The IC50 [16] was 2.4 nM, the Activity [17] was “Active” and the logKi [18] was -4.87. It also gave an IC50 [19] of under 1.9 nM, an IC50 [20] of over 121 nM and an IC50 [21] of 2690 nM. It also gave an IC50 [22] of 17 nM.
